Measured values from patent US8809341B2, “2,4-pyrimidinediamine compounds and uses as anti-proliferative agents” (Rigel Pharmaceuticals, Inc., priority 2003, dated 2014).
Blank lines part the entries; values can stand above or below the compound they belong to.

Key:
H1299 cells = test: in vitro antiproliferation assay, H1299 (lung); type: cell-based
How it was run: (§1)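 Standard in vitro antiproliferation assays on tumour cell lines, including A549 and H1299 (both lung); IC50 values determined.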

A549 cells = test: in vitro antiproliferation assay, A549 (lung); type: cell-based
How it was run: as §1

[1] = Table 5, in vitro antiproliferation, H1299 (lung) cells
[2] = Table 5, in vitro antiproliferation, A549 (lung) cells
[3] = Homo sapiens, NCI-H1299, IC50 class against H1299 (lung) tumor cells
[4] = Homo sapiens, IC50 class against A549 (lung) tumor cells
[5] = H1299 (lung) cells, in vitro antiproliferation
[6] = A549 (lung) cells, in vitro antiproliferation
[7] = H1299 (lung) cells, antiproliferation
[8] = A549 (lung) cells, antiproliferation
[9] = Table 7, in vitro antiproliferation, H1299 (lung) cells
[10] = Table 7, in vitro antiproliferation, A549 (lung) cells
[11] = IC50 class against H1299 (lung) tumor cells
[12] = IC50 class against A549 (lung) tumor cells

IC50 (H1299 cells; [1]): ≤ 20 µM
IC50 (A549 cells; [2]): ≤ 20 µM
SMILES: COc1cc(Cl)cc(Nc2ncc(F)c(Nc3ccc4c(c3)OCCO4)n2)c1 [compound 539]

IC50 (H1299 cells; [3]): > 20 µM
IC50 (A549 cells; [4]): > 20 µM
SMILES: CN1CCN(c2ccc(Nc3ncc(F)c(Nc4cccc(Nc5ncc[nH]5)c4)n3)cc2)CC1 [compound 1056]

IC50 (H1299 cells; [5]): ≤ 20 µM
IC50 (A549 cells; [6]): ≤ 20 µM
SMILES: COc1ccc(Nc2nc(Nc3cc(CO)cc(CO)c3)ncc2F)cc1Cl [compound 843]

IC50 (H1299 cells; in vitro antiproliferation, H1299 (lung) cells, Table 4, compounds with no designated stereochemistry tested as racemate): > 20 µM
IC50 (A549 cells; in vitro antiproliferation, A549 (lung) cells, Table 4, compounds with no designated stereochemistry tested as racemate): ≤ 20 µM
SMILES: Cc1cc(C)cc(Nc2ncc(F)c(N(C)c3ccc4c(c3)N(C)C(=O)C(C)(C)O4)n2)c1 [compound 324]

IC50 (H1299 cells; [5]): ≤ 20 µM
IC50 (A549 cells; [6]): ≤ 20 µM
SMILES: COc1cc(Nc2ncc(F)c(Nc3ccc(OC)c(OC)c3)n2)cc(OC)c1 [compound 856]

IC50 (H1299 cells; [7]): ≤ 20 µM
IC50 (A549 cells; [8]): ≤ 20 µM
SMILES: COc1ccc(Nc2ncc(F)c(Nc3ccc(OCCCN4CCOCC4)c(C)c3)n2)cc1OC [compound 945]

IC50 (H1299 cells; [9]): ≤ 20 µM
IC50 (A549 cells; [10]): ≤ 20 µM
SMILES: CNC(=O)c1cc2cccc(Nc3ncc(F)c(Nc4ccc5c(c4)OCO5)n3)c2[nH]1 [compound 655]

IC50 (H1299 cells; [11]): ≤ 20 µM
IC50 (A549 cells; [12]): ≤ 20 µM
SMILES: CCN1CCN(c2ccc(Nc3ncc(F)c(NC4CCCC4)n3)cn2)CC1 [compound 168]

IC50 (H1299 cells; H1299 (lung) cells): ≤ 20 µM
IC50 (A549 cells; A549 (lung) cells): ≤ 20 µM
SMILES: CC1(C)Oc2ccc(Nc3nc(Nc4ccc5cnn(C(C)(C)CC6CCC6)c5c4)ncc3F)cc2NC1=O [compound 1104]

IC50 (H1299 cells; [9]): > 20 µM
IC50 (A549 cells; [10]): > 20 µM
SMILES: CCOC(=O)c1cc2cccc(Nc3ncc(F)c(NC4CCC4)n3)c2[nH]1 [compound 678]

IC50 (H1299 cells; [3]): ≤ 20 µM
IC50 (A549 cells; [4]): ≤ 20 µM
SMILES: CC(=O)N1CCN(c2ccc(Nc3ncc(F)c(Nc4cc(C(C)(C)C)[nH]n4)n3)cc2)CC1 [compound 202]

IC50 (H1299 cells; [7]): ≤ 20 µM
IC50 (A549 cells; [8]): ≤ 20 µM
SMILES: CNS(=O)(=O)c1ccc(Nc2ncc(F)c(Nc3ccc(OC)c(OC)c3)n2)cc1OC [compound 879]

IC50 (H1299 cells; [5]): ≤ 20 µM
IC50 (A549 cells; [6]): ≤ 20 µM
SMILES: Oc1cccc(Nc2nc(Nc3ccc(OC(F)(F)F)c(Cl)c3)ncc2F)c1 [compound 781]

IC50 (H1299 cells; [5]): ≤ 20 µM
IC50 (A549 cells; [6]): > 20 µM
SMILES: COc1cc(Nc2nc(Nc3cc(C)cc(C(F)(F)F)c3)ncc2F)cc(C(F)(F)F)c1 [compound 820]

IC50 (H1299 cells; [7]): > 20 µM
IC50 (A549 cells; [8]): > 20 µM
SMILES: O=C(COc1cccc(Nc2ncc(F)c(Nc3cc(Cl)c(O)c(Cl)c3)n2)c1)N1CCNCC1 [compound 1001]

IC50 (H1299 cells; [7]): ≤ 20 µM
IC50 (A549 cells; [8]): ≤ 20 µM
SMILES: COc1ccc(Nc2nc(Nc3ccc(C(N)=O)c(Cl)c3)ncc2F)cc1Cl [compound 1033]

IC50 (H1299 cells; [5]): > 20 µM
IC50 (A549 cells; [6]): ≤ 20 µM
SMILES: Fc1ccc(Nc2ncc(F)c(Nc3ccc(F)cc3)n2)cc1 [compound 720]

IC50 (H1299 cells; [1]): ≤ 20 µM
IC50 (A549 cells; [2]): ≤ 20 µM
SMILES: COc1cc(Nc2ncc(F)c(Nc3ccc4c(c3)OC(F)(F)O4)n2)cc(C(F)(F)F)c1 [compound 567]

IC50 (H1299 cells; [1]): ≤ 20 µM
IC50 (A549 cells; [2]): ≤ 20 µM
SMILES: CNC(=O)COc1c(C)cc(Nc2ncc(F)c(N(C)c3ccc4c(c3)OCCO4)n2)cc1C [compound 573]

IC50 (H1299 cells; [1]): ≤ 20 µM
IC50 (A549 cells; [2]): ≤ 20 µM
SMILES: CC(=O)N1CCN(c2cccc(Nc3ncc(F)c(Nc4ccc5c(c4)OC(F)(F)C(F)(F)O5)n3)c2)CC1 [compound 552]

IC50 (H1299 cells; [7]): ≤ 20 µM
IC50 (A549 cells; [8]): ≤ 20 µM
SMILES: NCc1ccc(Nc2ncc(F)c(Nc3ccc(CN)cc3)n2)cc1 [compound 1013]

IC50 (H1299 cells; H1299 (lung) cells): ≤ 20 µM
IC50 (A549 cells; A549 (lung) cells): ≤ 20 µM
SMILES: COc1cc(Nc2nc(Nc3ccc4c(cnn4C(C)(C)CC4CCC4)c3)ncc2F)ccc1F [compound 1101]

IC50 (H1299 cells; [7]): ≤ 20 µM
IC50 (A549 cells; [8]): ≤ 20 µM
SMILES: CNC(=O)c1ccc(Nc2ncc(F)c(N(C)c3ccc(OC)c(OC)c3)n2)cc1Cl [compound 875]

IC50 (H1299 cells; H1299 (lung) cells): > 20 µM
IC50 (A549 cells; A549 (lung) cells): > 20 µM
SMILES: CCCn1ncc2cc(Nc3ncc(F)c(Nc4ccc(Cl)c(Cl)c4)n3)ccc21 [compound 1075]

IC50 (H1299 cells; [5]): > 20 µM
IC50 (A549 cells; [6]): > 20 µM
SMILES: Fc1cnc(Nc2ccc(C(F)(F)F)cc2)nc1Nc1ccc(C(F)(F)F)cc1 [compound 701]

IC50 (H1299 cells; [1]): ≤ 20 µM
IC50 (A549 cells; [2]): ≤ 20 µM
SMILES: COc1cc(Nc2ncc(F)c(Nc3ccc4c(c3)OC(F)(F)C(F)(F)O4)n2)cc(C(F)(F)F)c1 [compound 536]

IC50 (H1299 cells; [7]): ≤ 20 µM
IC50 (A549 cells; [8]): ≤ 20 µM
SMILES: CNS(=O)(=O)c1ccc(Nc2ncc(F)c(Nc3cc(OC)cc(OC)c3)n2)cc1OC [compound 880]

IC50 (H1299 cells; [5]): ≤ 20 µM
IC50 (A549 cells; [6]): ≤ 20 µM
SMILES: COc1cc(Nc2nc(Nc3cc(C)cc(C)c3)ncc2F)cc(C(F)(F)F)c1 [compound 817]

IC50 (H1299 cells; Homo sapiens, NCI-H1299, H1299 (lung) cells): > 20 µM
IC50 (A549 cells; Homo sapiens, A549 (lung) cells): > 20 µM
SMILES: COc1cc(C)c(Nc2ncc(F)c(Nc3ccc4c(c3)NC(=O)[C@H](C)O4)n2)cc1Cl [compound 1140]

IC50 (H1299 cells; [11]): ≤ 20 µM
IC50 (A549 cells; [12]): ≤ 20 µM
SMILES: CCN(CC)CCNC(=O)c1ccc(Nc2ncc(F)c(NC3CCCC3)n2)cc1 [compound 176]

IC50 (H1299 cells; [7]): ≤ 20 µM
IC50 (A549 cells; [8]): ≤ 20 µM
SMILES: CCN(CC)CCNC(=O)c1ccc(Nc2ncc(F)c(Nc3ccc(OC)c(Cl)c3)n2)cc1 [compound 1021]
